Test results taken from patent US7223794B2, “Arylheteroalkylamine derivatives and their use as inhibitors of nitric oxide synthase” (AstraZeneca AB, priority 2001, dated 2007).
Structures can show the parent of a compound that is named as a salt.

system: human form of induced nitric oxide synthase; test: Screen 3: nitrite accumulation (Griess) in cytokine-induced DLD-1 cells; type: cell-based; details: DLD-1 cells induced with gamma-IFN, TNF-alpha, IL-6, IL-1-beta, 5 hours incubation with compound, read-out: IC50 (inhibition of nitrite accumulation)
Method: The human colorectal carcinoma cell line, DLD-1 (obtained from the European Collection of Animal Cell Culture—cell line number 90102540) was routinely grown in RPMI 1640 supplemented with 10%(v/v) foetal bovine serum, and 2 mM L-glutanmine, at 37° C. in 5% CO2.
Nitric oxide synthase was induced in cells by addition of medium containing human recombinant gamma-IFN (1000 units/ml), TNF-alpha (200 U/ml), IL-6 (200 U/ml) and IL-1-beta (250 U/ml). After incubation for 18 hours at 37° C., the medium was removed and the cells washed with warm phosphate buffered saline. Cells were incubated for a further 5 hours at 37° C./5% CO2 in RPMI 1640 containing 100 μM L-arginine and 100 μM verapamil-HCl in the presence and absence of test compounds.
Nitrite accumulation was determined by mixing an equal volume of culture media with Griess reagent (10 mg/ml sulphanilamide, 1 mg N-(1-naphthyl)ethylenediamine in 1 ml 2.5% (v/v) phosphoric acid). Inhibition in the presence of compounds was calculated relative to the nitrite levels produced by untreated cells. IC50 values were estimated from a semi-log plot of % inhibition versus concentration of compound.

SMILES	IC50 [µM]
N#Cc1cc(F)c(Cl)cc1O[C@H](CN)c1ccccc1 [Example 1, 2-[[(1S)-2-Amino-1-phenylethyl]oxy]-4-chloro-5-fluorobenzonitrile (E)-butenedioate]	< 100
Cc1ccc(C#N)c(S[C@H](CN)c2ccccc2)n1 [Example 2, 2-[[(1S)-2-Amino-1-phenylethyl]thio]-6-methyl-3-pyridinecarbonitrile hydrochloride]	< 100
NCC(Sc1cc(Cl)ccc1Cl)c1ccccc1 (stereo not drawn) [Example 3, 2-[(2,5-Dichlorophenyl)thio]-2-phenylethylamine hydrochloride]	< 100
N#Cc1ccc(Cl)cc1S[C@H](CN)c1ccccc1 [Example 4, 2-[[(1S)-2-Amino-1-phenylethyl]thio]-4-chlorobenzonitrile hydrochloride]	< 100
CC(=N)NCC(Oc1cc(Cl)c(F)cc1C#N)c1ccccc1.Cl (stereo not drawn) [Example 5, N-[2-(5-Chloro-2-cyano-4-fluorophenoxy)-2-phenylethyl]-ethanimidamide hydrochloride]	< 100
N#Cc1ccc(C(F)(F)F)nc1S[C@H](CN)c1ccccc1 [Example 7, 2-[[(1S)-2-Amino-1-phenylethyl]thio]-6-(trifluoromethyl)-3-piridinecarbonitrile]	< 100
COc1ccc(C#N)c(S[C@H](CN)c2ccccc2)c1 [Example 8, 2-[[(1S)-2-Amino-1-phenylethyl]thio]-4-methoxybenzonitrile hydrochloride]	< 100
CNC[C@@H](Sc1cc(Cl)ccc1C#N)c1ccccc1 [Example 9, 4-Chloro-2-[[(1S)-2-(methylamino)-1-phenylethyl]thio]benzonitrile hydrochloride]	< 100
N#Cc1cc(F)c(Cl)cc1O[C@H](CN)c1ccon1 [Example 10, 2-[[(1R)-2-Amino-1-(3-isoxazolyl)ethyl]oxy]-4-chloro-5-fluorobenzonitrile ethanedioate]	< 100
N#Cc1ccc(Cl)cc1SC(CN)c1cccnc1 (stereo not drawn) [Example 11, 2-[[2-Amino-1-(3-pyridinyl)ethyl]thio]-4-chlorobenzonitrile]	< 100

system: not given; test: not given; details: not given

SMILES	melting point [°C]
CC(=N)NCC(Oc1cc(Cl)c(F)cc1C#N)c1ccccc1.Cl (stereo not drawn) [Example 5, N-[2-(5-Chloro-2-cyano-4-fluorophenoxy)-2-phenylethyl]-ethanimidamide hydrochloride]	133 to 135

target: T1, Nitric oxide synthase (Mus musculus, UniProt P29477); test: Screen 1: nitric oxide synthase inhibition, 3H-L-arginine to 3H-L-citrulline conversion, lysate of induced J774A-1 cells; type: biochemical, murine; details: enzyme from LPS/IFNg-induced J774A-1 macrophage lysate; 1 hour at room temperature; read-out: IC50 (concentration of drug substance which gives 50% enzyme inhibition in the assay)
T1 construct: endogenous in cells; host or cells: J774A-1 murine macrophage cell line, induced with LPS and IFNg; crude cell lysate
Method: The activity of compounds of formula (I), or a pharmaceutically acceptable salt thereof, may be screened for nitric oxide synthase inhibiting activity by a procedure based on that of Förstermann et al., Eur. J. Pharm., 1992, 225, 161–165. Nitric oxide synthase converts ^3H-L-arginine into ^3H-L-citrulline which can be separated by cation exchange chromatography and quantified by liquid scintillation counting.
Enzyme is prepared, after induction, from the cultured murine macrophage cell line J774A-1 (obtained from the laboratories of the Imperial Cancer Research Fund). J774A-1 cells are cultured in Dulbeccos Modified Eagles Medium (DMEM) supplemented with 10% foetal bovine serum, 4 mM L-glutamine and antibiotics (100 units/nl penicillin G, […] streptomycin & […] ainphotericin B). Cells are routinely grown in […] flasks containing 35 ml medium kept at 37° C. and in a humidified atmosphere containing 5% CO2. […]
Labelled L-citrulline is separated from labelled L-arginine using Dowex AG-50W. […] After allowing the samples to dry the L-citrulline is quantified by scintillation counting.
In a typical experiment basal activity is 300 dpm per 75 μl sample which is increased to 1900 dpm in the reagent controls. […] Compounds are tested at a range of concentrations and from the inhibitions is obtained IC50 values are calculated. […]

SMILES	IC50 [µM]
N=C(N)NN [ainlinoguanidine]	10
